{"source": "paper PMC13267291", "about": "“In vivo functional profiling and structural characterization of the human GLP1R A316T variant” (Science Advances, 2026)", "key": {"[1]": {"system": "SNAP/FLAG-hGLP1R^A316T versus ^WT", "assay": "High content microscopy GLP-1R internalization assay", "format": "cell-based, rat", "details": "INS-1 832/3 sublines; 5-60 min; AUC; n = 3; Fig. 7G", "experimental": "INS-1 832/3 Glp1r^−/− SNAP/FLAG-hGLP1R^WT or ^A316T cells were seeded onto poly-D-lysine–coated black 96-well plates for 24 hours before the assay. Cells were labeled for 30 min with 1 μM SNAP surface cleavable BG-SS-649 probe at 37°C and washed once with HBSS before treatment with GLP-1RA or vehicle for 60, 30, 15, or 5 min at 37°C in complete medium. Cells were then washed with cold HBSS, and subsequent steps were carried out at 4°C. The cell-impermeable reducing agent Mesna {100 mM in alkaline tris-NaCl-EDTA (TNE) buffer [20 mM tris-HCl, 1 mM EDTA, and 150 mM NaCl (pH 8.6)]} or alkaline TNE buffer without Mesna was applied for 5 min to cleave BG-SS-649 probe left at the cell surface and then washed with HBSS. […] Internalized GLP-1R, indicated by cell-associated fluorescence, was analyzed after flat-field correction of fluorescent images using the BaSiC plugin ([96]), segmentation of cell-containing regions from phase contrast images using Phantast ([97]), and fluorescence intensity quantification. The percentage of internalized receptor was calculated as follows F+Me(tx)/F−Me(tx)−F+Me(t0)/F−Me(t0)/1−F+Me(t0)/F−Me(t0) where F+Me and F−Me are mean fluorescence intensities ± Mesna at times tx (5, 15, 30, or 60 min) or t0 (0 min). […]"}, "[2]": {"system": "SNAP/FLAG-hGLP1R^A316T versus ^WT", "assay": "GLP-1R conformational ECD opening TR-FRET assay", "format": "cell-based, human", "details": "serial doses, 30 min; n = 5; Fig. 8E", "experimental": "Nb37 bystander NanoBiT assays\nINS-1 832/3 Glp1r-/- cells were seeded in 6-well plates and co-transfected with the following plasmids:\n200 ng pSNAP/FLAG-hGLP1RWT or A316T, 500 ng Gαs (human, short isoform), 500 ng Gβ1 (human), 500 ng Gγ2 (human), 100 ng RIC8B (human, isoform 2), and either 100 ng LgBiT-CAAX (KRAS CAAX motif N-terminally fused with LgBiT) or 500 ng Endofin-LgBiT (Endofin FYVE domain C-terminally fused with LgBiT), plus 100 ng (plasma membrane assay) or 500 ng (endosomal assay) SmBiT-Nb37 [Nb37 cDNA synthesised by GenScript C- terminally fused to SmBiT with a 15 amino acid flexible linker (123) ] and adjusted for total DNA with pcDNA3.1 for the LgBiT-CAAX transfection. 24 hours after transfection, cells were exposed to NanoGlo Live Cell Reagent (Promega) with furimazine (1:20 dilution) and bioluminescence read in a Flexstation 3 plate reader for 8 min before and 30 min after stimulation by […]\nAUCs were calculated for each agonist concentration and fitted to log(agonist) versus response four-parameter curves using GraphPad Prism 10.1.2, with logEC50 (potency) and Emax (efficacy) calculated for each replicate dose response curve. Baseline endosomal over plasma membrane bioluminescence ratios were also calculated.\nGLP- 1R conformational ECD opening time resolved-fluorescence resonance energy transfer (TR- […]\nsignal serially monitored for 30 min. […]"}}, "data": [{"substance": "GLP-1(7-36)NH2", "values": [{"measurement": "A316T GLP-1R internalization versus WT", "setting": "[1]", "value": "significantly increased"}, {"measurement": "TR-FRET (ECD opening) in response to agonist, A316T versus WT", "setting": "[2]", "value": "significantly increased"}]}]}
